Read-outs that look alike come from different tables or passages of the source.
Biological target: T1, Akt1 (Homo sapiens, UniProt P31749)
T1 construct: made in house; host or cells: Sf9 insect cells (baculovirus, pBlueBacHis2B)
Assay: Akt1 kinase assay (33P phosphorylation of biotinylated peptide, Flash plates)
Assay type: biochemical
Settings: for inhibition at 1.1 µg/mL: assayed at a concentration of 1.1 mcg/mL
Text: The assay described below measures the phosphorylation of a biotinylated peptide by active recombinant Akt1 and other kinase isoforms. The biotinylated peptide contains a consensus sequence derived from Akt substrate Gsk3 (Glycogen synthase kinase 3). The ^33P-labeled peptide substrate was captured by streptavidin-coated Flash plates.
Active recombinant Akt1 was expressed in Sf9 insect cells and purified as described by Kumar et al., Biochim. Biophys. Acta. Jun. 15, 2001, 1526(3), 257-268. Biotinylated peptide of the sequence Bio-ahx-RPRAASF was purchased from Syn Pep (Dublin, Calif., USA).
Cloning and Expression of Human Akt1 Sf9 Cells
Human Akt1 cDNA was amplified from a marathon-ready human lung cDNA library (Clonetech) using nested oligo primers as described below. The first round of amplification was carried out using the following primers; Akt1F1 ([…]) and Akt1R1 (TCCATC […]) and for the second round amplification, the primers of the following sequence were used; Akt1F2 (GGATCCTCGG […]) and AKT1R2 (GGTACCATCGTC […]). The PCR product was subcloned into pCRScript plasmid as a BamHI/KpnI fragment and the sequence of the cDNA was confirmed by DNA sequencing. This plasmid was used as a template for reamplification of Akt1 using appropriate primers for subcloning into pBlueBaHis2B into BamH1/EcoRI sites to generate an in frame fusion to (His)6 tag and an anti-Xpress antibody epitope tag at the N-terminus. This construct was sequenced to verify the junction sequences and used for generating a recombinant baculovirus. Growth of the recombinant virus, amplification and determination of viral titer were carried out according to the instructions from the manufacturer (InVitrogen, CA).
Purification of Akt1 from Sf9 Cells
Viral stocks were used to infect large scale Sf9 cells at a multiplicity of infection (MOI) of 2.5. Cells were maintained at 27° C. for 60 h and okadaic acid was added to the cultures to a concentration of 50 nM. Cells were harvested 4 h hours later by centrifugation at 1200 rpm for 30 min followed by freezing at −80° C. until further use. All purification steps were carried out at 4° C. Whole cell pellets were suspended in buffer A (20 mM sodium phosphate buffer pH 7.8, 500 mM NaCl, 1 mM sodium vanadate, 5 mM sodium fluoride, 40 mM β-glycerophosphate, 10 mM imidazole and protease inhibitor cocktail) and lysed using a microfluidizer. The cell extract was centrifuged at 16,000×g for 10 min to remove the debris and directly loaded onto Ni-NTA Superflow resin using a FPLC pump operated at 1 ml/min. The column was washed once with buffer A, once with wash buffer B (20 mM sodium phosphate pH 6.0, 1 mM sodium vanadate, 5 mM sodium fluoride and protease cocktail) and once with wash buffer B containing 0.05% Tween-20 followed by washing with buffer A until OD260 returned to basal level. Proteins were eluted with buffer A containing 200 mM imidazole. Fractions were analyzed by electrophoresis on 10% denaturing polyacrylamide gels and fractions containing 85% pure protein band at 60 KDa were pooled and dialyzed against buffer C (20 mM Tris-HCl pH 7.5, 0.5 mM EDTA,-2 mM DTT, 145 mM NaCl, 0.1 mM sodium vanadate, 5 mM sodium fluoride, 10 mM, β-glycerophosphate and 20% glycerol). Purified protein was stored as aliquots at −80° C. Protein concentrations were determined using BCA protein assay reagent A (Catalog #23228). To examine the identity of the proteins, 2 μg of purified protein was electrophoresed on SDS-polyacrylamide gels and stained with coomassie blue dye or transferred to nitrocellulose membrane and probed with anti-Akt and anti-phospho-specific Akt antibodies using enhanced chemiluminescence (ECL) reagent according to the protocol described by the manufacturer (Amersham).
The kinase assay was performed in 96 well plates at room temperature. Assay solutions and plates were preincubated at room temperature for 5 min. […]

[1] = read-out: IC50 rating (AKT1 inhibition)
[2] = read-out: IC50 (AKT1 inhibition)

T1 sequence (P31749 whole entry): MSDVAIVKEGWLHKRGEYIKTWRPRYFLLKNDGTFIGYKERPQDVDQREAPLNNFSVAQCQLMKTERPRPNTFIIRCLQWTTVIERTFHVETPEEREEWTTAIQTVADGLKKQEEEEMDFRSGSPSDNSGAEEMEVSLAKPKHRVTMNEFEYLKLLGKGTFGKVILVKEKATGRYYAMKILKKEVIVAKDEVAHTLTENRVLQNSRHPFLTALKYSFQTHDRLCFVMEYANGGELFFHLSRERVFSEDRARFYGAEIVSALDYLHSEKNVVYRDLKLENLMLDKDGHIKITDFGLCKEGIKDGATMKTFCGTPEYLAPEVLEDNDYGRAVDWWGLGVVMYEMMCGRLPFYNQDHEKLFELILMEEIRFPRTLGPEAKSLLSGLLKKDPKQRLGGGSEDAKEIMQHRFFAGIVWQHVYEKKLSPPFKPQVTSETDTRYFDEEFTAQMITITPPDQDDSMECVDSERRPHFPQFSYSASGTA

Structure (SMILES)	IC50 [1] [µM]	inhibition at 1.1 µg/mL [%]	IC50 [2] [µM]
Cc1n[nH]c2ccc(-c3nnc(NCc4ccccc4)c(N4CCN[C@@H](CC(C)C)C4)n3)cc12 [Compound 17, 6-benzylamino-5-[(S)-3-isobutylpiperazin-1-yl]-3-(3-methylindazol-5-yl)-[1,2,4]triazine]	> 1		
Cc1n[nH]c2ccc(-c3nnc(N)c(N4CC5CC4CN5)n3)cc12 (stereo not shown) [Compound 11, 6-amino-5-(2,5-diazabicyclo[2.2.1]hept-2-yl)-3-(3-methylindazol-5-yl)-[1,2,4]triazine]	> 1		
Cc1n[nH]c2ccc(-c3nnc(NCc4ccccc4)c(N4CCNCC4)n3)cc12 [Compound 3, 6-benzylamino-3-(3-methylindazol-5-yl)-5-(piperazin-1-yl)-[1,2,4]triazine]	< 0.1	> 90	
c1ccc(C[C@H]2CN(c3cnnc(-c4ccc5[nH]ncc5c4)n3)CCN2)cc1 [Compound 55, 5-[(S)-3-benzylpiperazin-1-yl]-3-indazol-5-yl-[1,2,4]triazine]	< 0.1		
Cc1n[nH]c2ccc(-c3nnc(Cl)c(N4CCN[C@@H](CC(C)C)C4)n3)cc12 [Compound 24, 6-chloro-5-[(S)-3-isobutylpiperazin-1-yl]-3-(3-methylindazol-5-yl)-[1,2,4]triazine]	< 0.1	> 90	
Cc1n[nH]c2ccc(-c3nnc(Cl)c(N4CCN[C@H](c5ccccc5)C4)n3)cc12 [Compound 43, 6-chloro-3-(3-methylindazol-5-yl)-5-[(R)-3-phenylpiperazin-1-yl]-[1,2,4]triazine]	0.1 to 1		
c1ccc(CNc2nnc(-c3ccc4[nH]nc(-c5ccccc5)c4c3)nc2N2CCNCC2)cc1 [Compound 53, 6-Benzylamino-3-(3-phenylindazol-5-yl)-5-(piperazin-1-yl)-[1,2,4]triazine]	> 1		
Cc1n[nH]c2ccc(-c3nnc(N)c(N4CCNCC4)n3)cc12 [Compound 1, 6-amino-3-(3-methylindazol-5-yl)-5-(piperazin-1-yl)-[1,2,4]triazine]	0.1 to 1		
c1ccc(C[C@H]2CN(c3cnnc(-c4ccc5[nH]nc(C6CC6)c5c4)n3)CCN2)cc1 [Compound 77, 5-[(S)-3-benzylpiperazin-1-yl]-3-(3-cyclopropylindazol-5-yl)-[1,2,4]triazine]	0.1 to 1		
Cc1n[nH]c2ccc(-c3nncc(N4CCNC(Cc5ccccc5)(Cc5ccccc5)C4)n3)cc12 [Compound 54, 5-(3,3-dibenzylpiperazin-1-yl)-3-(3-methylindazol-5-yl)-[1,2,4]triazine]	0.1 to 1		
Cc1n[nH]c2ccc(-c3nnc(Cl)c(N4CCN[C@@H](C(C)C)C4)n3)cc12 [Compound 20, 6-chloro-5-[(S)-3-isopropylpiperazin-1-yl]-3-(3-methylindazol-5-yl)-[1,2,4]triazine]	< 0.1	> 90	
Cc1n[nH]c2ccc(-c3nnc(Cl)c(N4CCC(N)C4)n3)cc12 (stereo not shown) [Compound 38, 5-(3-aminopyrrolidin-1-yl)-6-chloro-3-(3-methylindazol-5-yl)-[1,2,4]triazine]	< 0.1		
Cc1n[nH]c2ccc(-c3nnc(NCc4ccccc4)c(N4CCN[C@@H](Cc5ccccc5)C4)n3)cc12 [Compound 18, 6-Benzylamino-5-[(S)-3-benzylpiperazin-1-yl]-3-(3-methylindazol-5-yl)-[1,2,4]triazine]	> 1		
Cc1n[nH]c2ccc(-c3nncc(N4CCC(Cc5ccccc5)C4)n3)cc12 (stereo not shown) [Compound 69, 3-(3-methylindazol-5-yl)-5-(3-benzylpyrrolidin-1-yl)-[1,2,4]triazine]	0.1 to 1		
Cc1n[nH]c2ccc(-c3nncc(N4CCNC(Cc5cccc(F)c5)C4)n3)cc12 (stereo not shown) [Compound 47, 5-[3-(3-fluorobenzyl)piperazin-1-yl]-3-(3-methylindazol-5-yl)-[1,2,4]triazine]	< 0.1		
Cc1ccccc1CC1CN(c2cnnc(-c3ccc4[nH]ncc4c3)n2)CCN1 (stereo not shown) [Compound 74, 3-indazol-5-yl-5-[3-(2-methylbenzyl)piperazin-1-yl]-[1,2,4]triazine]	0.1 to 1		

Structure (SMILES)	IC50 [1] [µM]	inhibition at 1.1 µg/mL [%]	IC50 [2] [µM]
CCc1n[nH]c2ccc(-c3nncc(N4CCN[C@@H](CC(C)C)C4)n3)cc12 [Compound 79, 3-(3-ethylindazol-5-yl)-5-[(S)-3-isobutylpiperazin-1-yl]-[1,2,4]triazine]	0.1 to 1		
Cc1n[nH]c2ccc(-c3nnc(NCc4ccccc4)c(N4CCN[C@@H](C)C4)n3)cc12 [Compound 15, 6-benzylamino-3-(3-methylindazol-5-yl)-5-[(S)-3-methylpiperazin-1-yl]-[1,2,4]triazine]	0.1 to 1		
Cc1n[nH]c2ccc(-c3nnc(Cl)c(N4CCN[C@@H](Cc5c[nH]c6ccccc56)C4)n3)cc12 [Compound 22, 6-chloro-5-[(S)-3-(3-indolylmethyl)piperazin-1-yl]-3-(3-methylindazol-5-yl)-[1,2,4]triazine]	> 1		
Cc1n[nH]c2ccc(-c3nncc(N4CCCC(Cc5ccccc5)(C(=O)O)C4)n3)cc12 (stereo not shown) [Compound 65]	> 1		
Nc1n[nH]c2ccc(-c3nncc(N4CCN[C@@H](Cc5ccccc5)C4)n3)cc12 [Compound 67, 3-(3-aminoindazol-5-yl)-5-[(S)-3-benzylpiperazin-1-yl]-[1,2,4]triazine]	> 1		
Cc1n[nH]c2ccc(-c3nnc(CCc4ccccc4)c(N4CCN[C@@H](C(C)C)C4)n3)cc12 [Compound 93, 5-[(S)-3-isopropylpiperazin-1-yl]-3-(3-methylindazol-5-yl)-6-phenethyl-[1,2,4]triazine]	< 0.1		0.00136
COC(=O)C1(Cc2ccccc2)CCCN(c2cnnc(-c3ccc4[nH]nc(C)c4c3)n2)C1 (stereo not shown) [Compound 66]	> 1		
Cc1n[nH]c2ccc(-c3nncc(N4CCN[C@@H](C(C)C)C4)n3)cc12 [Compound 19, 5-[(S)-3-isopropylpiperazin-1-yl]-3-(3-methylindazol-5-yl)-[1,2,4]triazine]	< 0.1		
Clc1n[nH]c2ccc(-c3nncc(N4CCN[C@@H](Cc5ccccc5)C4)n3)cc12 [Compound 56, 5-[(S)-3-benzylpiperazin-1-yl]-3-(3-chloroindazol-5-yl)-[1,2,4]triazine]	< 0.1		0.0057
Cc1n[nH]c2ccc(-c3nnc(N)c(N4CCN[C@H](C)C4)n3)cc12 [Compound 9, 6-amino-3-(3-methylindazol-5-yl)-5-[(R)-3-methylpiperazin-1-yl]-[1,2,4]triazine]	> 1		
Cc1n[nH]c2ccc(-c3nnc(N)c(N4CCN[C@@H](C)C4)n3)cc12 [Compound 14, 6-amino-3-(3-methylindazol-5-yl)-5-[(S)-3-methylpiperazin-1-yl]-[1,2,4]triazine]	0.1 to 1		
c1ccc(C[C@H]2CN(c3cnnc(-c4ccc5[nH]nc(-c6ccccc6)c5c4)n3)CCN2)cc1 [Compound 70, 5-[(S)-3-benzylpiperazin-1-yl]-3-(3-phenylindazol-5-yl)-[1,2,4]triazine]	> 1		
Cc1n[nH]c2ccc(-c3nncc(N4CCNC5(CCCC5)C4)n3)cc12 [Compound 41, 5-(6,9-diaza-spiro[4.5]dec-9-yl)-3-(3-methylindazol-5-yl)-[1,2,4]triazine]	0.1 to 1		
Cc1n[nH]c2ccc(-c3nnc(N)c(N4CCN[C@@H](CC(C)C)C4)n3)cc12 [Compound 8, 6-amino-5-[(S)-3-isobutylpiperazin-1-yl]-3-(3-methylindazol-5-yl)-[1,2,4]triazine]	< 0.1	> 90	
Cc1n[nH]c2ccc(-c3nncc(N4CCN(CCO)[C@@H](Cc5ccccc5)C4)n3)cc12 [Compound 60, 5-[(S)-3-benzyl-4-hydroxyethyl-piperazin-1-yl]-3-(3-methylindazol-5-yl)-[1,2,4]triazine]	0.1 to 1		

Source: US7528132B2, “Kinase inhibitors” (Schering Corporation, priority 2005, dated 2009)
